“And” between values parts separate entries of the source, which are not always exact repeats. Identical values can stand only once.
Key:
Experiment in all cases: biochemical
Set-up in all cases: endogenous in cells; host or cells: K562 cell extract; species or system K562 (extract); replicate k of n = 2 (each experiment ID is one independent experiment; two experiment IDs per compound)
Details in all cases: read-out: KDapp
[1] = target: FER (Homo sapiens, UniProt P16591)
[2] = target: T1, ITK (Homo sapiens, UniProt Q08881)
T1 sequence (Q08881 1-620): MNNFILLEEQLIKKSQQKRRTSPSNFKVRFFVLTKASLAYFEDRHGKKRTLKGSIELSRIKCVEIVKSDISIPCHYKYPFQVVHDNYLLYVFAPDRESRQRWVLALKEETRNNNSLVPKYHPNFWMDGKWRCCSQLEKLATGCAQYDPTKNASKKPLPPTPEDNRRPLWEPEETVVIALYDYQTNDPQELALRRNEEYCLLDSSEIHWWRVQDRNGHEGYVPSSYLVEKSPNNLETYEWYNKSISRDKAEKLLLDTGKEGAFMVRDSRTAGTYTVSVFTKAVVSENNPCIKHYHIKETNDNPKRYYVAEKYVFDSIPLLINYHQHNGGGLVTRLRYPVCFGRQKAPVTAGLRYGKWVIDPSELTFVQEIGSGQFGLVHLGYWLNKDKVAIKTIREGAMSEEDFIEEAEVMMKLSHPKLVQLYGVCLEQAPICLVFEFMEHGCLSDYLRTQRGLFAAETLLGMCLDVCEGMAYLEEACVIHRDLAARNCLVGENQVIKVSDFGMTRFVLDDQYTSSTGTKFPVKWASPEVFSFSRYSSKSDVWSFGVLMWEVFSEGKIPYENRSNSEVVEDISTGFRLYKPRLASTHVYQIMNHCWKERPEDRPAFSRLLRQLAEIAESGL

[3] = target: T2, NEK1 (Homo sapiens, UniProt Q96PY6)
T2 sequence (Q96PY6 1-1258): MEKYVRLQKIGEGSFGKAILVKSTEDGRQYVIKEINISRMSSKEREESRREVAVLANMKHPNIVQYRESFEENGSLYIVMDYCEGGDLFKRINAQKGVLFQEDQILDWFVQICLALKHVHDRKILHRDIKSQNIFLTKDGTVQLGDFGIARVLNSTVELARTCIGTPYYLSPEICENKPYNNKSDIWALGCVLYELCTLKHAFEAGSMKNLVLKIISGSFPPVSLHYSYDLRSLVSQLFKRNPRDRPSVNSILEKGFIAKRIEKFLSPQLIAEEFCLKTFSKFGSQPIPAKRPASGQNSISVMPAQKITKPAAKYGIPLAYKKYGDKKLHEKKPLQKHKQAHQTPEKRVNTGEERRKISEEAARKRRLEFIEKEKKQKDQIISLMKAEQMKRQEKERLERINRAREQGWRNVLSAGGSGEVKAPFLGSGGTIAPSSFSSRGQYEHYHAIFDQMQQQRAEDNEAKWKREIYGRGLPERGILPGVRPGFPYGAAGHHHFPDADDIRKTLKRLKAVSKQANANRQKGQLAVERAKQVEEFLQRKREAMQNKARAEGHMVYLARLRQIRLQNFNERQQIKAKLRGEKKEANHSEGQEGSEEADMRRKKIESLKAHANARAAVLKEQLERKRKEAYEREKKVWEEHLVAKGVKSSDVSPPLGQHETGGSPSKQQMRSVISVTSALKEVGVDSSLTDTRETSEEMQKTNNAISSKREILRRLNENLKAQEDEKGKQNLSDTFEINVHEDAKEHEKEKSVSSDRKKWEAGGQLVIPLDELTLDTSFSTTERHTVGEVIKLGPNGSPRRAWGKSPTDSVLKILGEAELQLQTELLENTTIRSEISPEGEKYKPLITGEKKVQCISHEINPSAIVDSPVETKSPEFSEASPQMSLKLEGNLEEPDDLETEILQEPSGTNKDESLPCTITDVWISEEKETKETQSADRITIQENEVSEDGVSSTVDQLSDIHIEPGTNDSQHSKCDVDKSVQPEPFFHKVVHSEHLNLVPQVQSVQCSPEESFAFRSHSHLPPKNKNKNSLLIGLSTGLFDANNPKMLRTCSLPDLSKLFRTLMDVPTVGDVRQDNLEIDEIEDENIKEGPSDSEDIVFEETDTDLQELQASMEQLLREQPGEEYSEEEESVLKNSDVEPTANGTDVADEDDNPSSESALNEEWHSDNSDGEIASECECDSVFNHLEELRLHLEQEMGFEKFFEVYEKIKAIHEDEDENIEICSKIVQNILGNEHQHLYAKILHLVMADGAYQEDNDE

[4] = target: T3, STK17A (Homo sapiens, UniProt Q9UEE5)
T3 sequence (Q9UEE5 1-414): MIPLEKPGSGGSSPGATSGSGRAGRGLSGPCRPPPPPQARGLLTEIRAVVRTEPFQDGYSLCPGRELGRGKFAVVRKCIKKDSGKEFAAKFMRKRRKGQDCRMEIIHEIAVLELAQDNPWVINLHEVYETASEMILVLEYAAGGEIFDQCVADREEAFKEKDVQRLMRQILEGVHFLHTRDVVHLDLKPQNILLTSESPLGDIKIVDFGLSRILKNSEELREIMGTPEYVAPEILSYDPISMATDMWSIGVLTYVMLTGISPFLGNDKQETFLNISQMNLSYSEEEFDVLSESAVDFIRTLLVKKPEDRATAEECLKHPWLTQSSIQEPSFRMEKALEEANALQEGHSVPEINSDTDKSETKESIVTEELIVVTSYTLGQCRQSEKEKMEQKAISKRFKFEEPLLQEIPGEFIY

[5] = target: KIAA0999 (Homo sapiens, UniProt Q9Y2K2)
Chain of KIAA0999 (Q9Y2K2 whole entry): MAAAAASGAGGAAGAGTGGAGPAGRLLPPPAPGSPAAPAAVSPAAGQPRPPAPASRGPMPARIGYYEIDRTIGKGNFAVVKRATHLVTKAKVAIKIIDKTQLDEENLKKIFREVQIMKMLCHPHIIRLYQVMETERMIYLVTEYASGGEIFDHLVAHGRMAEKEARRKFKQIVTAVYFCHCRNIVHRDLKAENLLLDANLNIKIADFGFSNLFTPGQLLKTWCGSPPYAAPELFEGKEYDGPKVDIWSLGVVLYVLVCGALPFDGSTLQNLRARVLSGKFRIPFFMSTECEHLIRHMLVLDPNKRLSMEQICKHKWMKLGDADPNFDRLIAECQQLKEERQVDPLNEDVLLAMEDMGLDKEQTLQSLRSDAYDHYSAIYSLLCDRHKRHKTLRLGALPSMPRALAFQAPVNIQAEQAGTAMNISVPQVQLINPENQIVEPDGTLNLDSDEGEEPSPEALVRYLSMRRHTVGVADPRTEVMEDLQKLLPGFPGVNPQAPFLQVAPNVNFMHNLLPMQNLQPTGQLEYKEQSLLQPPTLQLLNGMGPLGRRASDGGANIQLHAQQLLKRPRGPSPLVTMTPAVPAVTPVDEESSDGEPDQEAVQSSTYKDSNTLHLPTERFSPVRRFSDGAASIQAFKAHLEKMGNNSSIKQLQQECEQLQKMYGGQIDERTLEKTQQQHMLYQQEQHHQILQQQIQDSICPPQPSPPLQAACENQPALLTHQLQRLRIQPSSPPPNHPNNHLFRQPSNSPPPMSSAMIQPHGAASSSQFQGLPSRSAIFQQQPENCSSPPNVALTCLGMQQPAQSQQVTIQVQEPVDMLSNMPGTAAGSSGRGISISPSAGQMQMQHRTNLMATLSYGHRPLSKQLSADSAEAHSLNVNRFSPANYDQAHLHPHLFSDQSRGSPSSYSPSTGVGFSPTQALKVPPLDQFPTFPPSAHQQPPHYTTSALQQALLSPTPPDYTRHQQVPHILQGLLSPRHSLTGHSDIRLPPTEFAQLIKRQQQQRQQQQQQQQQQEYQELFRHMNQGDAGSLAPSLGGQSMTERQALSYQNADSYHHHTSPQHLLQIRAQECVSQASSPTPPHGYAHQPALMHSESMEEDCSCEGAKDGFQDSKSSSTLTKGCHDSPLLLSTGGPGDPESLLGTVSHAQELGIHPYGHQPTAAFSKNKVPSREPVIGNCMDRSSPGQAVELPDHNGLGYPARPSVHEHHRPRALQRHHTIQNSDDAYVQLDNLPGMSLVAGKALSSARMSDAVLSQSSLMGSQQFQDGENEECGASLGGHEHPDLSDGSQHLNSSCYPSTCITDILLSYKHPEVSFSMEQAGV

Chain of FER (P16591 whole entry): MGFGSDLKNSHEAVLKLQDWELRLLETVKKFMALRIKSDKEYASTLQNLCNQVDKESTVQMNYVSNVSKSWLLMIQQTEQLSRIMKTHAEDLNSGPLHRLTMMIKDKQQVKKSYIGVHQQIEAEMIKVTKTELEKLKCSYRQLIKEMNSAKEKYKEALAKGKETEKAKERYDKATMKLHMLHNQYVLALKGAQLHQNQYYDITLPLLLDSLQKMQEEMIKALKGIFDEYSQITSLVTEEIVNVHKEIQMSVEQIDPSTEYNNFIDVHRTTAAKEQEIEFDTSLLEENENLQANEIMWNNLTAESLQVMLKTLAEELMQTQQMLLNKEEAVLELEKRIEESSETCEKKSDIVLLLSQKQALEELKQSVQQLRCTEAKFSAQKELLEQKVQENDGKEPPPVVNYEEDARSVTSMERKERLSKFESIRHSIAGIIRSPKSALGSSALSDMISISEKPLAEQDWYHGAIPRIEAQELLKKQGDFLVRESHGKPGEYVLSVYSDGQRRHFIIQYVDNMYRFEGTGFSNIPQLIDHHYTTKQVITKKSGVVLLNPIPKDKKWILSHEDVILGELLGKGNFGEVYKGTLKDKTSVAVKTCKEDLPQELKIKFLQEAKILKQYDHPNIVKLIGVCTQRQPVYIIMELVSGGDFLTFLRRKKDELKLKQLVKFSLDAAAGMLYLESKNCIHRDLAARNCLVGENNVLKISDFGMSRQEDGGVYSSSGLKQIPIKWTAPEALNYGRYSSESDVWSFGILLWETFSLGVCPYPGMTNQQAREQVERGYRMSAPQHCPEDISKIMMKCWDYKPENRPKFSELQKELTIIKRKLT

CN(C)CC(O)COc1ccc(Nc2ncc([N+](=O)[O-])c(Nc3ccccc3O)n2)cc1.O=C(O)C(F)(F)F (stereo not shown) [TCMDC-141399]
Kd [1]: 335 nM and 292 nM
Kd [2]: 470 nM
Kd [3]: 4540 nM
Kd [4]: 2550 nM

Cl.NCC1(c2nc(-c3ccc(Cl)c(O)c3)c(-c3ccncc3)[nH]2)CCCCC1 [TCMDC-141154]
Kd [5]: 40.3 nM and 31.2 nM

CN1CCN(c2ccc(Nc3ncc(C#N)c(Nc4ccccc4C(N)=O)n3)cc2)CC1.Cl [TCMDC-134116]
Kd [1]: 79.3 nM and 75.7 nM
Kd [2]: 38.7 nM
Kd [5]: 214 nM and 153 nM
Kd [3]: 404 nM and 333 nM
Kd [4]: 109 nM
